Experiment [1] concerns T-47D cells. Kind of experiment: Modulation of NRIF3- or DD1-mediated apoptosis in T-47D cells (TUNEL). In kind it is cell-based, human. The procedure:
(§1) Cell culture and transfection conditions. All breast cancer cell lines were maintained in DMEM (GIBCO-BRL, Life Technologies) supplemented with 10% fetal bovine serum (FBS). Other cells were cultured in DMEM supplemented with either 10% FBS or 10% Hyclone defined/supplemented bovine calf serum. For most of the transient transfections, T-47D cells were plated at a density of 3×10^4 cells/well on coverslips in 24-well tissue culture plates. About 20 h later, the cells were transfected with indicated plasmid(s) by Genefect transfection reagent (Molecula, USA) according to manufacturer's protocol. Generally, the amount of plasmids used in transfections was the following: GFP or GFP-fusion 300-500 ng, Bcl-2 or Bcl-xL 1-1.5 μg, AIF-GFP 500 ng, Gal4-DD1, GAl4-DD3 or Gal4 control 0.5-1 μg. After transfection, cells were incubated in DMEM/10% FBS medium for 5 h to 24 h before being harvested and processed for appropriate analyses. Transient transfection of other breast cancer cell lines were carried out similarly, except that the transfection reagent used was Lipofectamine 2000 (Life technologies). All other cells were transfected using Geneporter 2 (Gene Therapy Systems). When indicated, the following compounds were included in the medium: all-trans retinoic acid (100 nM), etopside (100 μM), zVAD-fmk (100 μM), zVDVAD-fmk (20 μM), TNFα (10 ng/ml) and cycloheximide (10 μg/ml).
siRNA studies. A small interference RNA (siRNA) duplex that efficiently silences human caspase-2 expression has been previously described (27), and was purchased from Dharmacon. The siRNA was dissolved at 20 pmol/μl in H2O. T-47D cells were plated at the density of 1.5×10^5 cells/well in 6-well plates the day before being transfected with siRNA. Transfection was carried out using Oligofectamine (Invitrogen), with 12 μl of dissolved siRNA and 12 μl of Oligofectamine reagent. Cells were fed with additional DMEM/10% FBS the second day, and harvested about 42 h after siRNA transfection. […] The harvested cells were then re-plated on cover-slips in 24-well plates as described earlier, and incubated for a few hours to let attachment occur. Cells were then transfected with the indicated GFP or GFP-fusion vectors as described earlier or treated with etoposide (100 μM). Cells were harvested about 20-24 h later and processed for appropriate assays. To document caspase-2 knock down, total lysates from siRNA transfected or control cells were quantified for protein concentrations. Equal amount of proteins were then subjected to SDS-PAGE, followed by Western analysis using a monoclonal antibody against caspase-2 (11B4, from Alexis).
Apoptosis assays. Cells plated on cover-slips in 24-well tissue culture plates were transfected and/or treated with appropriate compounds as indicated. Generally, cells were harvested within 20-24 h and processed for TUNEL and/or Annexin V assays. For Annexin V assay, cells were washed 3× with PBS and assayed using ApoAlert Nitric Oxide/Annexin V Dual Sensor Kit (BD Biosciences, USA) according to manufacturer's protocol. […] For quantitative analysis, fields consisting of at least several hundred cells were scanned, and a number of representative fields were photographed using GFP and rhodamine filters. Green and red cells from the same field were then counted. Generally, about one hundred of total green cells were counted for each data point. The percent of green cells counted that are also red were then calculated.

In experiment [2] the test system is HeLa cells. Description: Apoptosis of HeLa cells treated with TNFα and cycloheximide. In kind it is cell-based. The following applies: same dose (100 uM); data not shown. The protocol:
as §1

The test system of experiment [3] is HeLa cells. Description: TUNEL apoptosis assay of transfected HeLa cells. In kind it is cell-based. The protocol: as §1, with “Transient transfection of other breast cancer cell lines were carried out similarly, except that the transfection reagent used was Lipofectamine 2000 (Life technologies). All other cells were transfected using Geneporter 2 (Gene Therapy Systems). When indicated, the following compounds were included in the medium: all-trans retinoic acid (100 nM), etopside (100 μM), zVAD-fmk (100 μM), zVDVAD-fmk (20 μM), TNFα (10 ng/ml) and cycloheximide (10 μg/ml).” left out
(§2) Apoptosis assays. […] For quantitative analysis, fields consisting of at least several hundred cells were scanned, and a number of representative fields were photographed using GFP and rhodamine filters. Green and red cells from the same field were then counted. Generally, about one hundred of total green cells were counted for each data point. The percent of green cells counted that are also red were then calculated.

The subject of a further experiment is UOK-145. Kind of experiment: TUNEL apoptosis assay of transfected UOK-145 cells. It is filed as cell-based. The procedure: as §1, with “Transient transfection of other breast cancer cell lines were carried out similarly, except that the transfection reagent used was Lipofectamine 2000 (Life technologies). All other cells were transfected using Geneporter 2 (Gene Therapy Systems). When indicated, the following compounds were included in the medium: all-trans retinoic acid (100 nM), etopside (100 μM), zVAD-fmk (100 μM), zVDVAD-fmk (20 μM), TNFα (10 ng/ml) and cycloheximide (10 μg/ml).” left out
as §2

The test system of experiment [4] is ER+ derivative of MB-MDA-231. Description: TUNEL apoptosis assay of transfected ER+ derivative of MB-MDA-231. It is filed as cell-based, human. The procedure: as §1, with “Transient transfection of other breast cancer cell lines were carried out similarly, except that the transfection reagent used was Lipofectamine 2000 (Life technologies). All other cells were transfected using Geneporter 2 (Gene Therapy Systems). When indicated, the following compounds were included in the medium: all-trans retinoic acid (100 nM), etopside (100 μM), zVAD-fmk (100 μM), zVDVAD-fmk (20 μM), TNFα (10 ng/ml) and cycloheximide (10 μg/ml).” left out
as §2

The subject of experiment [5] is T-47D cells. Kind of experiment: TUNEL apoptosis assay of transfected T-47D cells. To be noted: T-47D cells transfected with expression vector. It is filed as cell-based, human. The procedure:
as §1, with “Transient transfection of other breast cancer cell lines were carried out similarly, except that the transfection reagent used was Lipofectamine 2000 (Life technologies). All other cells were transfected using Geneporter 2 (Gene Therapy Systems). When indicated, the following compounds were included in the medium: all-trans retinoic acid (100 nM), etopside (100 μM), zVAD-fmk (100 μM), zVDVAD-fmk (20 μM), TNFα (10 ng/ml) and cycloheximide (10 μg/ml).” left out
as §2

The next experiment has as its system HBL100 cells. Kind of experiment: TUNEL apoptosis assay of transfected HBL100 cells. It is filed as cell-based. To be noted: HBL100, non-malignant immortalized breast epithelial cell line. The protocol: as §1, with “Transient transfection of other breast cancer cell lines were carried out similarly, except that the transfection reagent used was Lipofectamine 2000 (Life technologies). All other cells were transfected using Geneporter 2 (Gene Therapy Systems). When indicated, the following compounds were included in the medium: all-trans retinoic acid (100 nM), etopside (100 μM), zVAD-fmk (100 μM), zVDVAD-fmk (20 μM), TNFα (10 ng/ml) and cycloheximide (10 μg/ml).” left out
as §2

The next experiment deals with GH4C1. Description: TUNEL apoptosis assay of transfected GH4C1 cells. It is filed as cell-based. The protocol: as §1, with “Transient transfection of other breast cancer cell lines were carried out similarly, except that the transfection reagent used was Lipofectamine 2000 (Life technologies). All other cells were transfected using Geneporter 2 (Gene Therapy Systems). When indicated, the following compounds were included in the medium: all-trans retinoic acid (100 nM), etopside (100 μM), zVAD-fmk (100 μM), zVDVAD-fmk (20 μM), TNFα (10 ng/ml) and cycloheximide (10 μg/ml).” left out
as §2

The subject of the next experiment is AIF-GFP. Kind of experiment: AIF-GFP translocation from mitochondria to nucleus in T-47D cells. To be noted: as early as 5 h after transfection. It is filed as cell-based, human. The protocol:
as §1, with “Transient transfection of other breast cancer cell lines were carried out similarly, except that the transfection reagent used was Lipofectamine 2000 (Life technologies). All other cells were transfected using Geneporter 2 (Gene Therapy Systems). When indicated, the following compounds were included in the medium: all-trans retinoic acid (100 nM), etopside (100 μM), zVAD-fmk (100 μM), zVDVAD-fmk (20 μM), TNFα (10 ng/ml) and cycloheximide (10 μg/ml).” left out
as §2

The next experiment has as its system MB-MDA-435 cells. Description: TUNEL apoptosis assay of transfected MB-MDA-435 cells. It is filed as cell-based, human. To be noted: MB-MDA-435 (ER−). The protocol:
as §1, with “Transient transfection of other breast cancer cell lines were carried out similarly, except that the transfection reagent used was Lipofectamine 2000 (Life technologies). All other cells were transfected using Geneporter 2 (Gene Therapy Systems). When indicated, the following compounds were included in the medium: all-trans retinoic acid (100 nM), etopside (100 μM), zVAD-fmk (100 μM), zVDVAD-fmk (20 μM), TNFα (10 ng/ml) and cycloheximide (10 μg/ml).” left out
as §2

For another experiment, the system named is MCF-7 cells. Description: TUNEL apoptosis assay of transfected MCF-7 cells. It is filed as cell-based, human. To be noted: MCF-7 (ER+). The protocol:
as §1, with “Transient transfection of other breast cancer cell lines were carried out similarly, except that the transfection reagent used was Lipofectamine 2000 (Life technologies). All other cells were transfected using Geneporter 2 (Gene Therapy Systems). When indicated, the following compounds were included in the medium: all-trans retinoic acid (100 nM), etopside (100 μM), zVAD-fmk (100 μM), zVDVAD-fmk (20 μM), TNFα (10 ng/ml) and cycloheximide (10 μg/ml).” left out
as §2

The test system of the next experiment is COS-1. Description: TUNEL apoptosis assay of transfected COS-1 cells. It is filed as cell-based. The protocol: as §1, with “Transient transfection of other breast cancer cell lines were carried out similarly, except that the transfection reagent used was Lipofectamine 2000 (Life technologies). All other cells were transfected using Geneporter 2 (Gene Therapy Systems). When indicated, the following compounds were included in the medium: all-trans retinoic acid (100 nM), etopside (100 μM), zVAD-fmk (100 μM), zVDVAD-fmk (20 μM), TNFα (10 ng/ml) and cycloheximide (10 μg/ml).” left out
as §2

The next experiment relates to MB-MDA-231 cells. Kind of experiment: TUNEL apoptosis assay of transfected MB-MDA-231 cells. It is filed as cell-based, human. To be noted: MB-MDA-231 (ER−). The procedure:
as §1, with “Transient transfection of other breast cancer cell lines were carried out similarly, except that the transfection reagent used was Lipofectamine 2000 (Life technologies). All other cells were transfected using Geneporter 2 (Gene Therapy Systems). When indicated, the following compounds were included in the medium: all-trans retinoic acid (100 nM), etopside (100 μM), zVAD-fmk (100 μM), zVDVAD-fmk (20 μM), TNFα (10 ng/ml) and cycloheximide (10 μg/ml).” left out
as §2

The subject of another experiment is 293. Description: TUNEL apoptosis assay of transfected 293 cells. It is filed as cell-based. The protocol:
as §1, with “Transient transfection of other breast cancer cell lines were carried out similarly, except that the transfection reagent used was Lipofectamine 2000 (Life technologies). All other cells were transfected using Geneporter 2 (Gene Therapy Systems). When indicated, the following compounds were included in the medium: all-trans retinoic acid (100 nM), etopside (100 μM), zVAD-fmk (100 μM), zVDVAD-fmk (20 μM), TNFα (10 ng/ml) and cycloheximide (10 μg/ml).” left out
as §2

The mark [6] stands for this setting: 100 uM inhibitor prior to and after transfection, T-47D.

Entries after “also recorded” stand apart in the source; their conditions may differ. Where a SMILES comes first, the peptide text is derived from it. The star is where a group is joined. Cbz = O=C(OCc1ccccc1)*; CH2F = FC*

For the compound `COC(=O)C[C@H](NC(=O)[C@H](C)NC(=O)[C@@H](NC(=O)OCc1ccccc1)C(C)C)C(=O)CF` [zVAD-fmk] (Cbz-Val-Ala-Asp(OMe)-CH2F), in the experiment with T-47D cells [1] (setting [6]), the “effect on apoptosis mediated by GFP-NRIF3” value is recorded as “did not inhibit apoptosis” and the “effect on apoptosis mediated by GFPNLS-DD1” value is “did not inhibit apoptosis”. For the same compound, the “cell death caused by inhibitor alone” value in the experiment with T-47D cells [1] (T-47D, no transfected death construct, data not shown) is “did not cause cell death”. Also, the “effect on apoptosis of HeLa cells treated with TNFα and cycloheximide” value in the experiment with HeLa cells [2] is on record as “significantly inhibit apoptosis”.
`COC(=O)C[C@H](NC(=O)[C@H](C)NC(=O)[C@@H](NC(=O)[C@H](CC(=O)OC)NC(=O)[C@@H](NC(=O)OCc1ccccc1)C(C)C)C(C)C)C(=O)CF` [zVDVAD-fmk] (Cbz-VD(OMe)VAD(OMe)-CH2F): the “effect of caspase-2 chemical inhibitor on DD1-induced apoptosis” value with T-47D cells [1] (T-47D, 20 μM in medium, data not shown) is “efficiently blocked”.
Regarding “Bcl-2: anti-apoptotic Bcl-2 family protein co-expressed from a vector”, the “effect of co-expression on DD1-mediated apoptosis” value in the experiment on T-47D cells [1] (co-expressed with GFPNLS-DD1 in T-47D) is given as “significantly inhibited”.
In the case of “DD1: death domain 1, residues 20-50 of NRIF3 (SEQ ID NO:11), co-resides with transrepression domain RepD1 (PSKITRKKSVITYSPTTGTCQMSLFASPTSS; sequence of DD1)”, the induction of apoptosis result was “did not lead to apoptosis; also recorded: no detectable cell death” with HeLa cells [3]; “did not lead to apoptosis” in the experiment on UOK-145; “efficient apoptosis” in experiment [4]; “efficient apoptosis” with HBL100 cells; “did not lead to apoptosis” in the experiment on GH4C1; “efficient apoptosis” with MB-MDA-435 cells. The induction of apoptosis entry in the experiment with MCF-7 cells was “efficient apoptosis”; with COS-1, “did not lead to apoptosis”; in the experiment on MB-MDA-231 cells it was “efficient apoptosis”; in the experiment with 293, “did not lead to apoptosis; also recorded: no detectable cell death”. For the same compound, the results for the “induction of apoptosis (TUNEL and/or Annexin V)” value in the experiment with T-47D cells [5] and with T-47D cells [5] (listed as RepD1) were “efficient apoptosis; also recorded: underwent rapid apoptosis” and “efficiently induced death”, respectively. In addition, in the experiment on AIF-GFP, the “sub-cellular location of AIF-GFP upon co-expression” value was “translocation of AIF-GFP from mitochondria to the nucleus”.

(Values after patent US8124581B2, “Methods for treating breast cancer using NRIF3 related molecules” (New York University, priority 2004, dated 2012).)
